Assays:
[1] = excess molar enthalpy (molar enthalpy of mixing); xn = mol fraction of the nth substance listed; conditions: 323.15 K, Liquid, Flow calorimetry
[2] = 323.15 K; Liquid; mass and volume balance equations

C=CCCCCCCCC [1-decene] + COC
[1]
Conditions | excess molar enthalpy [kJ/mol]
x2 = 0.1265 | 0.13
x2 = 0.2342 | 0.232
x2 = 0.3269 | 0.3
x2 = 0.4076 | 0.345
x2 = 0.4784 | 0.367
x2 = 0.5411 | 0.378
x2 = 0.5971 | 0.378
x2 = 0.6472 | 0.367
x2 = 0.6924 | 0.351
x2 = 0.7335 | 0.329
x2 = 0.7708 | 0.301
x2 = 0.805 | 0.272
x2 = 0.8363 | 0.241
x2 = 0.8652 | 0.207
x2 = 0.892 | 0.174
x2 = 0.9167 | 0.139
x2 = 0.9397 | 0.103
x2 = 0.9612 | 0.0682
x2 = 0.9812 | 0.0337

c1ccccc1 [benzene]
Conditions | vapor or sublimation pressure [kPa]
[2] | 35.47

CCCCCCCCCC [decane]
Conditions | vapor or sublimation pressure [kPa]
[2] | 1.18

COC [dimethyl ether]
Conditions | vapor or sublimation pressure
[2] | 1144.2 kPa [middle of 6 runs]

COC [dimethyl ether] + CCCCCCCCCC
[1]
Conditions | excess molar enthalpy [kJ/mol]
x1 = 0.1299 | 0.237
x1 = 0.2396 | 0.409
x1 = 0.3336 | 0.526
x1 = 0.4149 | 0.597
x1 = 0.486 | 0.637
x1 = 0.5487 | 0.654
x1 = 0.6043 | 0.651
x1 = 0.6541 | 0.634
x1 = 0.6989 | 0.607
x1 = 0.7393 | 0.571
x1 = 0.7761 | 0.526
x1 = 0.8097 | 0.479
x1 = 0.8405 | 0.425
x1 = 0.8687 | 0.371
x1 = 0.8948 | 0.313
x1 = 0.919 | 0.252
x1 = 0.9414 | 0.19
x1 = 0.9623 | 0.127
x1 = 0.9818 | 0.0628

COC [dimethyl ether] + CCCCCCCCCCCC
[1]
Conditions | excess molar enthalpy [kJ/mol]
x1 = 0.1484 | 0.28
x1 = 0.269 | 0.466
x1 = 0.3688 | 0.585
x1 = 0.4529 | 0.658
x1 = 0.5247 | 0.688
x1 = 0.5866 | 0.697
x1 = 0.6407 | 0.687
x1 = 0.6882 | 0.66
x1 = 0.7304 | 0.625
x1 = 0.7681 | 0.583
x1 = 0.8019 | 0.532
x1 = 0.8324 | 0.48
x1 = 0.8601 | 0.424
x1 = 0.8854 | 0.365
x1 = 0.9085 | 0.306
x1 = 0.9298 | 0.247
x1 = 0.9494 | 0.185
x1 = 0.9675 | 0.124
x1 = 0.9844 | 0.0607

COC [dimethyl ether] + Cc1ccccc1
[1]
Conditions | excess molar enthalpy [kJ/mol]
x1 = 0.0753 | -0.0488
x1 = 0.1467 | -0.0906
x1 = 0.2145 | -0.128
x1 = 0.279 | -0.158
x1 = 0.3403 | -0.18
x1 = 0.3988 | -0.199
x1 = 0.4545 | -0.213
x1 = 0.5078 | -0.223
x1 = 0.5587 | -0.226
x1 = 0.6075 | -0.228
x1 = 0.6541 | -0.224
x1 = 0.6989 | -0.216
x1 = 0.7419 | -0.206
x1 = 0.7831 | -0.19
x1 = 0.8228 | -0.17
x1 = 0.8609 | -0.147
x1 = 0.8976 | -0.118
x1 = 0.933 | -0.0831
x1 = 0.9671 | -0.0443

COC [dimethyl ether] + O
[1]
Conditions | excess molar enthalpy [kJ/mol]
x1 = 0.0137 | -0.132
x1 = 0.0363 | -0.317
x1 = 0.0808 | -0.543
x1 = 0.1366 | -0.646
x1 = 0.2087 | -0.547
x1 = 0.3054 | -0.399
x1 = 0.4418 | -0.188
x1 = 0.5543 | -0.0147
x1 = 0.6487 | 0.132
x1 = 0.7036 | 0.216
x1 = 0.7649 | 0.308
x1 = 0.8337 | 0.413
x1 = 0.8713 | 0.4
x1 = 0.9114 | 0.348
x1 = 0.9542 | 0.243

COC [dimethyl ether] + c1ccccc1
[1]
Conditions | excess molar enthalpy [kJ/mol]
x1 = 0.0637 | -0.0334
x1 = 0.1256 | -0.064
x1 = 0.1857 | -0.0945
x1 = 0.2442 | -0.12
x1 = 0.3011 | -0.141
x1 = 0.3565 | -0.16
x1 = 0.4104 | -0.176
x1 = 0.4628 | -0.188
x1 = 0.514 | -0.196
x1 = 0.5638 | -0.2
x1 = 0.6124 | -0.2
x1 = 0.6597 | -0.197
x1 = 0.7059 | -0.189
x1 = 0.751 | -0.179
x1 = 0.795 | -0.161
x1 = 0.8379 | -0.141
x1 = 0.8799 | -0.115
x1 = 0.9208 | -0.0818
x1 = 0.9609 | -0.0435

CCCCCCCCCCCC [dodecane]
Conditions | vapor or sublimation pressure [kPa]
[2] | 0.2

C=CCCCCCC [oct-1-ene]
Conditions | vapor or sublimation pressure [kPa]
[2] | 8.3

C=CCCCCCC [oct-1-ene] + COC
[1]
Conditions | excess molar enthalpy [kJ/mol]
x2 = 0.1071 | 0.104
x2 = 0.2021 | 0.187
x2 = 0.2868 | 0.248
x2 = 0.363 | 0.291
x2 = 0.4317 | 0.317
x2 = 0.4941 | 0.331
x2 = 0.551 | 0.335
x2 = 0.6031 | 0.332
x2 = 0.6509 | 0.322
x2 = 0.695 | 0.307
x2 = 0.7358 | 0.284
x2 = 0.7737 | 0.26
x2 = 0.8089 | 0.233
x2 = 0.8417 | 0.203
x2 = 0.8724 | 0.174
x2 = 0.9011 | 0.14
x2 = 0.9281 | 0.106
x2 = 0.9535 | 0.071
x2 = 0.9774 | 0.0352

Cc1ccccc1 [toluene]
Conditions | vapor or sublimation pressure [kPa]
[2] | 12.22

O [water]
Conditions | vapor or sublimation pressure [kPa]
[2] | 12.29

Source: the NIST ThermoML archive (doi:10.1021/je700174h)
